{
  "source": "patent EP0234178A1",
  "about": "“New 8-substituted derivatives of an anhydrooctonic acid, methods for their preparation, pharmaceutical preparations containing these and intermediates” (Astra Läkemedel Aktiebolag, priority 1985, dated 1987)",
  "key": {"[1]": {"tested_on": "Gram-negative bacteria", "assay": "Test I Bactericidal activity (viable count after exposure to drug)", "format": "cell-based", "settings": "final concentration of ImM, 15 min exposure, number of viable bacteria", "protocol": "A range of Gram-negative bacteria were grown at 37°C in aerobic shake culture in nutrient broth for 16 h. O.I ml of these cultures were each inoculated into 5 ml of fresh broth and the cultures incubated further, until the bacteria reached mid-logarithmic phase, when the culture was harvested by centrifugation and resuspended in Basal Medium 2 (J Bacteriol 117 (1974) 3O2-311) to an OD 1cm 620 mm = 0.2 (equivalent to 10^8 bacteria/ml). Test compound was added to the bacterial suspension to give a final concentration of ImM. After 15 min exposure to drug the number of viable bacteria was determined by serial dilution in sterile phosphate buffered saline (PBS), plating out onto McConkey agar plates and incubating for 16 h at 37°C."}, "[2]": {"tested_on": "S. typhimurium AG701 i50 (KdsA^ts)", "assay": "Test III Inhibition of incorporation of 3H-arabinose-5-phosphate into LPS", "format": "cell-based, Salmonella typhimurium", "settings": "S. typhimurium AG701 i50, 30°C, samples after 10 min", "protocol": "Arabinose-5-phosphate is a precursor of KDO in enteric bacteria. KdsA mutants of Salmonella typhimurium rapidly take up exogenous arabinose-5-phosphate and convert it to KDO which then appears exclusively in LPS (J. Biol. Chem. 255 (1980) 4257).\nS. typhimurium AG701 i50 (KdsA^ts) was grown overnight at 30°C in minimal Medium (Eur. J. Biochem. 107 (1980) 145-153) supplemented with 1% glycerol and 0.01 mM D-fucose. The next day 0.1 ml of overnight culture was added to fresh medium and the culture grown at 30°C until mid logarithmic phase - (OD [formula] mm = 0.2) when 50 µl of \"H-arabinose-5-phosphate (Amersham; specific activity 72 µCi/ml)-was added. After 10 min 0.45 ml samples were taken, the bacteria colleced by filtration (Whatman GF/F glass fibre filter) and washed with 6 ^x Iml PBS followed by 100 ml boiling water. This procedure ensures that all radioactive counts recorded represent arabinose-5-phosphate incorporated into LPS as KDO (J. Biol. Chem. 255 (1980) 4257)."}},
  "data": [
    {"smiles": "C[C@H](N)C(=O)N[C@@H](C)C(=O)NC[C@@H](O)[C@H]1O[C@H](C(=O)O)C[C@@H](O)[C@H]1O", "note": "[Compound 6, N-(L-alanyl-L-alanyl)-8-amino-2,6-anhydro-3,8-dideoxy-D-glycero-D-talo-octonic acid]", "values": [
      {"measurement": "inhibitory action against the bacteria", "setting": "[1]", "value": "inhibitory action"},
      {"measurement": "incorporation of arabinose-5-phosphate into LPS / denovo LPS biosynthesis", "setting": "[2]", "value": "markedly inhibits"}
    ]}
  ]
}
